Measured values published in ChEMBL document CHEMBL1828496 (Eur J Med Chem, 2011).

Legend:
[1] = molecular target: T1, Amine oxidase [flavin-containing] A (Homo sapiens, UniProt P21397); experiment: Inhibition of human recombinant MAO-A expressed in baculovirus infected BTI-TN-5B1-4 cells assessed as production of hydrogen peroxide from p-tyramine at 100 uM after 15 mins by microplate fluorescence assay; conditions: for inhibition (INH): human, bti-tn-5b1-4, 0.25 h, 100 µM; for inhibition at 100 µM: BTI-TN-5B1-4, human, 0.25 h
T1 sequence (P21397 whole entry): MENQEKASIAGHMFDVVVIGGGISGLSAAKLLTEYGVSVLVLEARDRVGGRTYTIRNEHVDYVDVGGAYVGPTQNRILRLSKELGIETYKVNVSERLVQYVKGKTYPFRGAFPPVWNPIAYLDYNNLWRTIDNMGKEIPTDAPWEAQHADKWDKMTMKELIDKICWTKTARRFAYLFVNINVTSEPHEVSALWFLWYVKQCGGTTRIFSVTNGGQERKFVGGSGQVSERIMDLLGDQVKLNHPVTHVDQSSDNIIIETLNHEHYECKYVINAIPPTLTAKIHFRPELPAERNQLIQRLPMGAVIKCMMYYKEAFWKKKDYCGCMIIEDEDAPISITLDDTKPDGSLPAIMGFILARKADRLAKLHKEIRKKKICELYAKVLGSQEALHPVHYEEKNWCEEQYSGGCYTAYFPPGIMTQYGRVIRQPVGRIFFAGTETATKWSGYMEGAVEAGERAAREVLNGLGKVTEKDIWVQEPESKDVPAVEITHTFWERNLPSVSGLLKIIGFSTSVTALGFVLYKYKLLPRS

[2] = molecular target: T2, Amine oxidase [flavin-containing] B (Homo sapiens, UniProt P27338); experiment: Inhibition of human recombinant MAO-B expressed in baculovirus infected BTI-TN-5B1-4 cells assessed as production of hydrogen peroxide from p-tyramine at 100 uM after 15 mins by microplate fluorescence assay; conditions: for inhibition (INH): human, bti-tn-5b1-4, 0.25 h, 100 µM; for inhibition at 100 µM: BTI-TN-5B1-4, human, 0.25 h
T2 sequence (P27338 whole entry): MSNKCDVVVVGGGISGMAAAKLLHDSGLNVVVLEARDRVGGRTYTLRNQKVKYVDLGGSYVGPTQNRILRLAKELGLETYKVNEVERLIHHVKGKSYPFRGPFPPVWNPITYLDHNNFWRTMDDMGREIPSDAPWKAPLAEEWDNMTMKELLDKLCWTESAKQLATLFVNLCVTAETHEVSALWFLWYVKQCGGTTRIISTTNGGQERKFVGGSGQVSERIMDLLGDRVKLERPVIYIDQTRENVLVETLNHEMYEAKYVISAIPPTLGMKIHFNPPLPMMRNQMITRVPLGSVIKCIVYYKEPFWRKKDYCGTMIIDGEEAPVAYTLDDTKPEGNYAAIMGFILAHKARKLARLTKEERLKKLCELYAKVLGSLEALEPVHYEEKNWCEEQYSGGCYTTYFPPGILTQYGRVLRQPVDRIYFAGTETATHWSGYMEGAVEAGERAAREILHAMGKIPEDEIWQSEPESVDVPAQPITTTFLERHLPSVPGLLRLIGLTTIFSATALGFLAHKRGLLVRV

Homo sapiens = species: Homo sapiens; experiment: Selectivity ratio of IC50 for human recombinant MAO-A to IC50 for human recombinant MAO-B
[3] = Hydrolytic stability of the compound in dimethyl sulfoxide after 1 to 24 hrs by NMR spectroscopic analysis; type: physicochemical
[4] = Hydrolytic stability of the compound in water after 1 to 24 hrs by NMR spectroscopic analysis; type: physicochemical
[5] = Hydrolytic stability of the compound in phosphate buffer at pH 7.4 after 1 to 24 hrs by NMR spectroscopic analysis; type: physicochemical
[6] = Hydrolytic stability of the compound in acetonitrile after 1 to 24 hrs by NMR spectroscopic analysis; type: physicochemical
[7] = molecular target: T2, Amine oxidase [flavin-containing] B; experiment: biochemical; type: cell-based, BTI-TN-5B1-4
Description: Inhibition of human recombinant MAO-B expressed in baculovirus infected BTI-TN-5B1-4 cells assessed as production of hydrogen peroxide from p-tyramine after 15 mins by microplate fluorescence assay

[8] = molecular target: T1, Amine oxidase [flavin-containing] A; experiment: Inhibition of human recombinant MAO-A expressed in baculovirus infected BTI-TN-5B1-4 cells assessed as production of hydrogen peroxide from p-tyramine after 15 mins by microplate fluorescence assay

Structure (SMILES)	inhibition (INH) [1]	Ratio IC50 (Homo sapiens)	IC50 [7] [µM]	further results
O=C(c1ccccc1)c1cc2c(ccc3ccccc32)oc1=O	Not Active	–	–	inhibition (INH) [2]: Not Active
CCOC(=O)c1cc2ccc(OCc3ccccc3)cc2oc1=O	Not Active	> 14300	0.00701	Stability [3]: Stable; Stability [4]: Stable; Stability [5]: Stable; Stability [6]: Stable
Cc1ccc(NNC(=O)c2cc3ccccc3oc2=O)cc1	–	< 0.58	–	IC50 [8]: 58.4 µM; inhibition (INH) [2]: Not Active
O=C(c1ccccc1)c1cc2ccc(O)cc2oc1=O	Not Active	–	–	inhibition (INH) [2]: Not Active
O=C(NNc1ccc([N+](=O)[O-])cc1[N+](=O)[O-])c1cc2ccccc2oc1=O	–	1.08	56.1	IC50 [8]: 60.5 µM
O=C(O)c1cc2cc(O)ccc2oc1=O	–	< 0.4	–	IC50 [8]: 40.2 µM; inhibition at 100 µM [2]: 40%
CCOC(=O)c1cc2ccc(OCc3ccc(Cl)c(Cl)c3)cc2oc1=O	Not Active	> 10600	0.00947	Stability [3]: Stable; Stability [4]: Stable; Stability [5]: Stable; Stability [6]: Stable
O=C(O)c1cc2cc(Br)cc(Br)c2oc1=O	Not Active	–	–	inhibition (INH) [2]: Not Active
CC(=O)c1cc2cc(I)cc(I)c2oc1=O	Not Active	–	–	inhibition (INH) [2]: Not Active
CC(=O)c1cc2ccc(O)cc2oc1=O	Not Active	–	–	inhibition (INH) [2]: Not Active
O=C(c1ccccc1)c1cc2cc(O)ccc2oc1=O	–	2.9	18	IC50 [8]: 51.7 µM
Cc1ccc2oc(=O)c(C(=O)c3ccccc3)cc2c1	Not Active	–	–	inhibition at 100 µM [2]: 40%
CCN(CC)c1ccc2cc(C(C)=O)c(=O)oc2c1	Not Active	> 5.5	18.1	–
O=C(c1ccccc1)c1cc2ccccc2oc1=O	Not Active	–	–	inhibition (INH) [2]: Not Active
CCOC(=O)c1cc2ccc(OCc3cccc(Cl)c3)cc2oc1=O	Not Active	> 1630	0.0612	Stability [3]: Stable; Stability [4]: Stable; Stability [5]: Stable; Stability [6]: Stable
CCOC(=O)c1cc2ccc(OC)cc2oc1=O	–	> 4.3	23.5	inhibition at 100 µM [1]: 40%
CC(=O)c1cc2cccc(O)c2oc1=O	–	0.93	42.1	IC50 [8]: 39.4 µM
O=C(O)c1cc2cc(I)cc(I)c2oc1=O	Not Active	> 5.6	17.8	–
O=C(O)c1cc2ccc(OCc3cccc(Cl)c3)cc2oc1=O	Not Active	> 55	1.8	–
CCOC(=O)c1cc2cccc(O)c2oc1=O	–	2.7	14.8	IC50 [8]: 40.5 µM
O=C(O)c1cc2ccc(OC3CCCCCC3)cc2oc1=O	Not Active	> 11.6	8.62	–
O=C(c1ccccc1)c1cc2cc(Br)ccc2oc1=O	Not Active	–	–	inhibition (INH) [2]: Not Active
CC(C)(C)c1ccc(COc2ccc3cc(C(=O)O)c(=O)oc3c2)cc1	Not Active	–	–	inhibition (INH) [2]: Not Active
O=C(c1ccccc1)c1cc2cc(Cl)ccc2oc1=O	Not Active	–	–	inhibition (INH) [2]: Not Active
O=C(NNc1ccccc1[N+](=O)[O-])c1cc2ccccc2oc1=O	–	< 0.39	–	IC50 [8]: 39.6 µM; inhibition (INH) [2]: Not Active
CC(=O)c1cc2cc(O)ccc2oc1=O	–	> 1.6	64.2	inhibition at 100 µM [1]: 40%

Structure (SMILES)	inhibition (INH) [1]	Ratio IC50 (Homo sapiens)	IC50 [7] [µM]	further results
O=C(NNc1ccc(Cl)cc1)c1cc2ccccc2oc1=O	–	40.4	1.19	IC50 [8]: 48 µM
O=C(O)c1cc2cc(Cl)cc(Br)c2oc1=O	Not Active	–	–	inhibition (INH) [2]: Not Active
CCN(CC)c1ccc2cc(C(=O)c3ccccc3)c(=O)oc2c1	Not Active	> 4.2	23.8	–
CC(=O)c1cc2c(ccc3ccccc32)oc1=O	–	> 50	2.01	inhibition at 100 µM [1]: 40%
CC(=O)c1cc2cc(Br)cc(Br)c2oc1=O	Not Active	> 500	0.2	–
O=C(O)c1cc2ccc(OCc3ccc(Cl)c(Cl)c3)cc2oc1=O	Not Active	> 244	0.41	–
CCOC(=O)c1cc2cc(OC)ccc2oc1=O	Not Active	> 4.6	21.6	Stability [3]: Stable; Stability [4]: Stable; Stability [5]: Stable; Stability [6]: Stable
O=C(c1ccccc1)c1cc2cc(Cl)cc(Br)c2oc1=O	Not Active	–	–	inhibition at 100 µM [2]: 40%
CC(=O)c1cc2cc(Br)ccc2oc1=O	–	< 0.52	–	IC50 [8]: 51.6 µM; inhibition at 100 µM [2]: 40%
O=C(c1ccccc1)c1cc2cc(Br)cc(Br)c2oc1=O	Not Active	–	–	inhibition at 100 µM [2]: 40%
O=C(c1ccccc1)c1cc2cc(I)cc(I)c2oc1=O	Not Active	–	–	inhibition (INH) [2]: Not Active
O=C(O)c1cc2cccc(O)c2oc1=O	–	< 0.6	–	IC50 [8]: 59.6 µM; inhibition at 100 µM [2]: 40%
CCOC(=O)c1cc2cc(O)ccc2oc1=O	–	4.9	10.1	IC50 [8]: 49.1 µM
COc1ccc2cc(C(=O)c3ccccc3)c(=O)oc2c1	Not Active	–	–	inhibition at 100 µM [2]: 40%
COc1ccc2oc(=O)c(C(=O)O)cc2c1	Not Active	–	–	inhibition (INH) [2]: Not Active
COc1ccc2cc(C(C)=O)c(=O)oc2c1	–	> 6.5	15.4	inhibition at 100 µM [1]: 40%
COc1ccc2cc(C(=O)O)c(=O)oc2c1	Not Active	–	–	inhibition at 100 µM [2]: 40%
CC(=O)c1cc2cc(Cl)ccc2oc1=O	Not Active	> 5.6	17.7	–
CCOC(=O)c1cc2ccc(N(CC)CC)cc2oc1=O	Not Active	> 2.2	45.5	–
CC(=O)c1cc2cc(Cl)cc(Br)c2oc1=O	–	394	0.14	IC50 [8]: 55.2 µM
CCOC(=O)c1cc2cc(Cl)cc(Br)c2oc1=O	Not Active	> 5.7	17.5	–
CC(=O)c1cc2cc(C)ccc2oc1=O	Not Active	–	–	inhibition at 100 µM [2]: 40%
CCOC(=O)c1cc2ccc(O)cc2oc1=O	Not Active	–	–	inhibition (INH) [2]: Not Active
CCOC(=O)c1cc2cc(Br)cc(Br)c2oc1=O	Not Active	–	–	inhibition at 100 µM [2]: 40%
O=C(c1ccccc1)c1cc2cccc(O)c2oc1=O	–	1.5	27.1	IC50 [8]: 40.5 µM
CC(=O)c1cc2ccccc2oc1=O [3-ACETYLCOUMARIN]	Not Active	> 6.9	14.5	–
